Key:
[1] = test system: Human immunodeficiency virus 1; assay: Antiviral activity against wild-type HIV1 3B infected in human MT4 cells assessed as protection against virus-induced cytopathic effect after 4 days by MTT assay; type: functional, organism-based; details: Human immunodeficiency virus 1, 3B, MT4, 96 h
[2] = test system: Human immunodeficiency virus 2; assay: Antiviral activity against HIV2 ROD infected in human MT4 cells assessed as protection against virus-induced cytopathic effect after 4 days by MTT assay; type: functional, organism-based; details: Human immunodeficiency virus 2, ISOLATE ROD, MT4, 96 h
[3] = Cytotoxicity against human MT4 cells assessed as reduction in cell viability after 4 days by MTT assay; type: cell-based
[4] = Selectivity index, ratio of CC50 for human MT4 cells to EC50 for wild-type HIV1 3B infected in human MT4 cells; type: toxicity, cell-based; details: MT4 cells infected with wild-type HIV1 3B, read-out: Ratio CC50/EC50
[5] = test system: Human immunodeficiency virus 1; assay: Antiviral activity against HIV1 RES056 harboring K103N/Y181C double mutant infected in human MT4 cells assessed as protection against virus-induced cytopathic effect after 4 days by MTT assay; type: functional, organism-based; details: Human immunodeficiency virus 1, RES056, MT4, 96 h
[6] = molecular target: Human immunodeficiency virus type 1 reverse transcriptase (Human immunodeficiency virus 1, UniProt Q72547); assay: Inhibition of recombinant wild-type HIV1 GST-fused reverse transcriptase p66/p51 RNA-dependent DNA polymerase activity expressed in Escherichia coli assessed as reduction in biotin-dUTP incorporation using poly(rA)/oligo(dT)16 as template/primer after 40 mins by PicoGreen dye based spectrofluorometric analysis
[7] = Solubility of the compound in DMSO at 125 ug/ml; type: physicochemical

SMILES | EC50 [1] [µM] | EC50 [2] [µM] | CC50 at 96 h [3] [µM] | selectivity ratio [4] | EC50 [5] [µM] | IC50 [6] [µM] | solubility [7]
CCOC(=O)c1cnc(N2CCN(Cc3ccccc3C(=O)OC)CC2)nc1Oc1c(C)cc(-c2ccc(C#N)cc2)cc1C | > 125 | > 125 | > 125 | 1 | – | – | –
CCOC(=O)c1cnc(N2CCN(Cc3ccc(F)cc3)CC2)nc1Oc1c(C)cc(-c2ccc(C#N)cc2)cc1C | ≥ 120 | > 118 | > 118 | 1 | > 118 | > 120 | Insoluble
CCOC(=O)c1cnc(N2CCN(Cc3ccc(S(N)(=O)=O)cc3)CC2)nc1Oc1c(C)cc(-c2ccc(C#N)cc2)cc1C | ≥ 24.9 | > 7.93 | ≥ 7.93 | 1 | > 7.93 | 63.5 | Insoluble
CCOC(=O)c1cnc(N2CCN(Cc3ccc(S(C)(=O)=O)cc3)CC2)nc1Oc1c(C)cc(-c2ccc(C#N)cc2)cc1C | > 125 | > 125 | > 125 | 1 | – | – | –
CCOC(=O)c1cnc(N2CCN(Cc3ccccc3F)CC2)nc1Oc1c(C)cc(-c2ccc(C#N)cc2)cc1C | > 125 | > 125 | > 125 | 1 | – | – | –
CCOC(=O)c1cnc(N2CCN(Cc3cccc(Br)c3)CC2)nc1Oc1c(C)cc(-c2ccc(C#N)cc2)cc1C | > 125 | > 125 | > 125 | 1 | – | – | –
CCOC(=O)c1cnc(N2CCN(Cc3cccc(C(N)=O)c3)CC2)nc1Oc1c(C)cc(-c2ccc(C#N)cc2)cc1C | 3.36 | > 14.8 | 14.8 | 4 | > 14.8 | ≥ 93.1 | Insoluble
CCOC(=O)c1cnc(N2CCN(Cc3cccc(C(F)(F)F)c3)CC2)nc1Oc1c(C)cc(-c2ccc(C#N)cc2)cc1C | > 125 | > 125 | > 125 | 1 | – | – | –
CCOC(=O)c1cnc(N2CCN(Cc3cc(C)cc(C)c3)CC2)nc1Oc1c(C)cc(-c2ccc(C#N)cc2)cc1C | > 125 | > 125 | > 125 | 1 | – | – | –
CCOC(=O)c1cnc(N2CCN(Cc3ccccc3[N+](=O)[O-])CC2)nc1Oc1c(C)cc(-c2ccc(C#N)cc2)cc1C | > 78.7 | > 78.7 | ≥ 78.7 | 1 | – | – | –
CCOC(=O)c1cnc(N2CCN(Cc3cccc(C#N)c3)CC2)nc1Oc1c(C)cc(-c2ccc(C#N)cc2)cc1C | > 125 | > 125 | > 125 | 1 | – | – | –
CCOC(=O)c1cnc(N2CCN(Cc3cccc(C(=O)OC)c3)CC2)nc1Oc1c(C)cc(-c2ccc(C#N)cc2)cc1C | > 125 | > 125 | > 125 | 1 | – | – | –
CCOC(=O)c1cnc(N2CCN(Cc3ccc([N+](=O)[O-])cc3)CC2)nc1Oc1c(C)cc(-c2ccc(C#N)cc2)cc1C | > 125 | > 125 | > 125 | 1 | – | – | –
CCOC(=O)c1cnc(N2CCN(Cc3cccc([N+](=O)[O-])c3)CC2)nc1Oc1c(C)cc(-c2ccc(C#N)cc2)cc1C | 31.5 | > 125 | > 125 | > 4 | > 125 | 114 | Insoluble
CCOC(=O)c1cnc(N2CCN(Cc3ccc(Br)cc3)CC2)nc1Oc1c(C)cc(-c2ccc(C#N)cc2)cc1C | > 125 | > 125 | > 125 | 1 | – | – | –
CCOC(=O)c1cnc(N2CCN(Cc3ccc(C#N)cc3)CC2)nc1Oc1c(C)cc(-c2ccc(C#N)cc2)cc1C | > 125 | > 125 | > 125 | 1 | – | – | –
CCOC(=O)c1cnc(N2CCN(Cc3ccccc3C(F)(F)F)CC2)nc1Oc1c(C)cc(-c2ccc(C#N)cc2)cc1C | > 125 | > 125 | > 125 | 1 | – | – | –
CCOC(=O)c1cnc(N2CCN(Cc3cccc(F)c3)CC2)nc1Oc1c(C)cc(-c2ccc(C#N)cc2)cc1C | > 125 | > 125 | > 125 | 1 | – | – | –
CCOC(=O)c1cnc(N2CCN(Cc3cccc(OC)c3)CC2)nc1Oc1c(C)cc(-c2ccc(C#N)cc2)cc1C | > 125 | > 125 | > 125 | 1 | – | – | –
CCOC(=O)c1ccc(CN2CCN(c3ncc(C(=O)OCC)c(Oc4c(C)cc(-c5ccc(C#N)cc5)cc4C)n3)CC2)cc1 | > 125 | > 125 | > 125 | 1 | – | – | –
CCOC(=O)c1cnc(N2CCN(Cc3cc(F)cc(F)c3)CC2)nc1Oc1c(C)cc(-c2ccc(C#N)cc2)cc1C | > 125 | > 125 | > 125 | 1 | – | – | –
CCOC(=O)c1cnc(N2CCN(Cc3ccc(C(N)=O)cc3)CC2)nc1Oc1c(C)cc(-c2ccc(C#N)cc2)cc1C | > 66.5 | > 66.5 | 66.5 | < 1 | > 66.5 | ≥ 113 | Insoluble
CCOC(=O)c1cnc(N2CCN(Cc3ccccc3Br)CC2)nc1Oc1c(C)cc(-c2ccc(C#N)cc2)cc1C | > 125 | > 125 | > 125 | 1 | – | – | –
CCOC(=O)c1cnc(N2CCN(Cc3ccccc3C#N)CC2)nc1Oc1c(C)cc(-c2ccc(C#N)cc2)cc1C | > 125 | > 125 | > 125 | 1 | – | – | –
CCOC(=O)c1cnc(N2CCN(Cc3ccc(C(F)(F)F)cc3)CC2)nc1Oc1c(C)cc(-c2ccc(C#N)cc2)cc1C | > 125 | > 125 | > 125 | 1 | – | – | –
CCOC(=O)c1cnc(N2CCN(Cc3ccc(C(=O)OC)cc3)CC2)nc1Oc1c(C)cc(-c2ccc(C#N)cc2)cc1C | > 125 | > 125 | > 125 | 1 | – | – | –
Cc1cc(C#N)cc(C)c1Oc1nc(Nc2ccc(C#N)cc2)nc(N)c1Br [ETRAVIRINE] | 0.0022 | – | > 2 | – | 0.015 | – | –
Cc1ccnc2c1NC(=O)c1cccnc1N2C1CC1 [NEVIRAPINE] | 0.1 | – | > 4 | – | > 4 | – | –
